Ends that are not written are not given here.

Test [1] deals with T1, HSC70 (Homo sapiens, UniProt P11142).
T1 construct: made in house
As to the kind of experiment: Competition ELISA: soluble peptide vs HSC70 binding to immobilized 1097-L. As for the experimental part: (§1) HSC70, DJA1 and DJA2 were purified as His-tagged proteins, as described. HSC70 was also amplified by PCR with an N-terminal FLAG tag, inserted into pPROEXHTa (Invitrogen) and purified as described. HSC70 was stored in 100 mM KOAc, 20 mM HEPES-KOH pH 7.5, 5 mM MgOAC2 (buffer G), DJA1 and DJA2 in 500 mM NaCl, 20 mM HEPES-KOH pH 7.5, 5 mM MgOAC2 (buffer H). Avi-tagged CFTR NBD1 was purified as described.
(§2) The CFTR peptide library was designed as 15-mers with 10-residue overlaps covering the cytosolic sequences as in Fig. 1a and Supplemental Table S1. Synthetic peptides (Mimotopes, PepSet purity) contained an N-terminal biotin followed by linker sequence GSGS and the 15-mer sequence. […] Peptides were reconstituted in DMSO or water.
(§3) For peptide binding, streptavidin-coated black 96-well plates (Nunc Maxisorp, ThermoFisher) were pre-rinsed with PBS containing 0.05% Tween-20 (PBST), and 5 µM biotinylated peptides in 100 µl PBS were bound overnnight at 4 °C with agitation. Plates were washed with PBST and blocked with PBST containing 0.5% bovine serum albumin (BSA) for 1 h. After removal of blocking solution, 100 µl reactions containing chaperones at indicated concentrations were bound for 45 min at room temperature with agitation. HSC70 reactions were in buffer G containing 1 mM ATP, DJA1 and DJA2 reactions were in buffer H. For competition assays, chaperones and peptides were mixed at indicated concentrations immediately before the reactions were added to the plates. For detections, the plates were washed in PBST and 5 μM His-Probe-HRP conjugate (ThermoFisher) in 100 μL PBST added for 15 min with agitation. After washing in PBST, plates were developed using Amplex Red (ThermoFisher) according to manufacturer’s instructions, in a fluorescence plate reader (Tecan M1000).
(§4) Affinities were determined separately from binding curves and from competition curves. Data from binding of chaperones to immobilized peptides (Fig. 2a,b and Supplemental Fig. S2a–c) were fit to the equation 1/(1 − i) = (C/i)/Kd^B − b, where i is the relative saturation, C is the chaperone concentration (1 μM), Kd^B is the apparent dissociation constant from the binding data. In the plot of 1/(1 − i) against (C/i), the slope is 1/Kd^B, and −b is the intercept. […] In the plot of bi + (C/Kd^B)/i over D, the slope is 1/Kd^C, and e is the intercept. The amount of chaperone bound in the absence of competitor was set as i = 1.
(§5) Established statistical methods[71]–[73] were used to analyze the data for chaperone binding to the peptide library. First, biological and statistical outliers were identified with the Tukey method in two rounds, for biological and then statistical outliers. […] Binding data were represented as multiples of the standard deviations from the normal means. Binding in the presence of competitor peptides were shown as a fraction of binding in the absence of competitor, or the fraction competed calculated as 1 – fraction bound. Values were compared using a two-tailed unpaired Student’s t-test assuming unequal variance.

The target of test [2] is T2, DJA1 (Homo sapiens, UniProt P31689).
T2 construct: made in house
In words: Competition ELISA: soluble peptide vs DJA1 binding to immobilized 1097-L. As for the experimental part: as §1, §2, §3, §4, §5

For test [3], the target named is T3, DJA2 (Homo sapiens, UniProt O60884).
T3 construct: made in house
T3 sequence (O60884 whole entry): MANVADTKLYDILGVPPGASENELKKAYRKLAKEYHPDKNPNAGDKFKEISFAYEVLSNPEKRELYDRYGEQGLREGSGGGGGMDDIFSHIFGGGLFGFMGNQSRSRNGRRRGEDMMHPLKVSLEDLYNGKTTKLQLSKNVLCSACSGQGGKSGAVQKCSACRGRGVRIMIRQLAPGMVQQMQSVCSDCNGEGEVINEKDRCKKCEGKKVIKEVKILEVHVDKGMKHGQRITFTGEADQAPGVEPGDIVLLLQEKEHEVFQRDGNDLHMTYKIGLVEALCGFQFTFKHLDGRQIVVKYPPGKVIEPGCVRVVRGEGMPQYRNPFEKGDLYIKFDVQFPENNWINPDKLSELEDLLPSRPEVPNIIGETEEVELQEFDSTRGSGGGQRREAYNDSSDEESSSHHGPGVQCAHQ
As to the kind of experiment: Competition ELISA: soluble peptide vs DJA2 binding to immobilized 1097-L. The method, then:
as §1, §2, §3, §4, §5
A general note: An ELISA detects its analyte on a solid surface through an enzyme-linked reagent.

In test [4] the target is T1, HSC70. As to the kind of experiment: Fluorescent peptide binding, HSC70. To be noted: 0.5 μM FAM-1092-S, buffer G, 45 min, ex 492 nm / em 520 nm, one site total binding fit, n ≥ 8. An excerpt: (§6) The CFTR peptide library was designed as 15-mers with 10-residue overlaps covering the cytosolic sequences as in Fig. 1a and Supplemental Table S1. Synthetic peptides (Mimotopes, PepSet purity) contained an N-terminal biotin followed by linker sequence GSGS and the 15-mer sequence. Soluble peptides (Lifetein) were synthesized unmodified at >85% purity, sequences in Supplemental Table S1 and S2. Fluorescent peptide 1092-S was fused to the linker sequence SG and an N-terminal 6-carboxyfluorescein (FAM) label. Peptides were reconstituted in DMSO or water.
(§7) 0.5 μM FAM-1092-S was incubated with chaperones at the indicated concentrations for 45 min. HSC70 was incubated in buffer G, DJA1 and DJA2 were incubated in buffer H. The fluorescence signal for each condition was measured at 492 nm wavelength excitation, 520 nm wavelength emission, and 5 nm slit width, using a Horiba FluoroMax spectrofluorometer. Data were collected with the FluorEssence software (Horiba). Dissociation constants (Kd) were determined by nonlinear regression fit of the averaged data to a one site – total binding model, using GraphPad Prism 8. The 95% confidence intervals and R^2 correlation coefficients are reported (Supplemental Table S3).

The target of test [5] is T2, DJA1. As to the kind of experiment: Fluorescent peptide binding, DJA1. To be noted: 0.5 μM FAM-1092-S, buffer H, 45 min, ex 492 nm / em 520 nm, one site total binding fit, n ≥ 8.
Excerpt: as §6, §7

The target of test [6] is T3, DJA2. As to the kind of experiment: Fluorescent peptide binding, DJA2. Conditions: 0.5 μM FAM-1092-S, buffer H, 45 min, ex 492 nm / em 520 nm, one site total binding fit, n ≥ 8.
Excerpt: as §6, §7

For test [7], the target named is T1, HSC70. As to the kind of experiment: ELISA binding of HSC70 to immobilized CFTR NBD1 and competition by soluble peptides. To be noted: 1 μM HSC70, with ATP, soluble peptide, Fig. 4a; n = 5. The method, then:
as §1
For NBD1 binding, 100 nM of strep-tagged NBD1 in 100 µl of 150 mM NaCl, 50 mM Na2HPO4 pH 7.5, 1 mM ATP, and 40 µM DTT (buffer N), was bound to streptavidin plates for 1 hour at 4 °C with agitation. Plates were washed with PBST and incubated in buffer N at 30 °C in a water bath for 5 min. Then, plates were blocked in PBST containing 0.5% BSA, followed by the addition of HSC70 binding reactions, and detection as above.

The subject of another test is HSC70 and DJA2. As to the kind of experiment: Refolding of guanidine denatured luciferase by HSC70 and DJA2. It counts as biochemical. To be noted: 4 μM each HSC70 and DJA2, 100 nM luciferase, 100 μM peptide (25-fold excess), 60 min, % of control without peptide; n = 3. As for the experimental part: Refolding of guanidine denatured luciferase with HSC70 and DJA2 was as described. […] To monitor refolding, luciferase activity was measured in a luminometer (Berthold Sirius) with the luciferase assay kit (Promega). For co-IPs, 20 μL reaction aliquots were stopped by dilution at 4 °C to 500 μL with buffer containing 0.1% Triton X-100, 0.2% BSA and 0.04 mg/mL apyrase (Sigma). Reactions were incubated with FLAG-M2 magnetic beads (Sigma) for 1 h at 4 °C with agitation, then beads were isolated and washed with buffer G containing 0.1% Triton X-100, and eluted with 40 μL of 1 μg/mL FLAG peptide in the same buffer. Samples were analyzed on Western blots detected with antibodies against luciferase (Sigma, L2164) and the FLAG-M2 tag (Sigma, F1804).

The target of test [8] is T1, HSC70. In words: ELISA binding of HSC70 to immobilized biotinylated CFTR peptides. The method, then: as §1, §2, §3, §4, §5
Test [9] concerns the target T2, DJA1. In words: ELISA binding of DJA1 to immobilized biotinylated CFTR peptides. To be noted: 2 μM DJA1, absence of ATP, immobilized 15-mer; n ≥ 3. As for the experimental part: as §1, §2, §3, §4, §5
The target of test [10] is T3, DJA2. In words: ELISA binding of DJA2 to immobilized biotinylated CFTR peptides. To be noted: 2 μM DJA2, absence of ATP, immobilized 15-mer; n ≥ 3. The method, then:
as §1, §2, §3, §4, §5

The test system of another test is Flag-tagged HSC70. In words: Co-immunoprecipitation of luciferase with Flag-tagged HSC70 during refolding. It counts as biochemical. Conditions: refolding reactions stopped at 0 or 15 min, FLAG IP, Western blot, Fig. 4d. The method, then:
as §1
Refolding of guanidine denatured luciferase with HSC70 and DJA2 was as described. 100 µl reactions contained 4 μM each of HSC70 and DJA2, 2 mM ATP and […] in buffer G, with the indicated concentrations of peptides. To monitor refolding, luciferase activity was measured in a luminometer (Berthold Sirius) with the luciferase assay kit (Promega). For co-IPs, 20 μL reaction aliquots were stopped by dilution at 4 °C to 500 μL with buffer containing 0.1% Triton X-100, 0.2% BSA and 0.04 mg/mL apyrase (Sigma). Reactions were incubated with FLAG-M2 magnetic beads (Sigma) for 1 h at 4 °C with agitation, then beads were isolated and washed with buffer G containing 0.1% Triton X-100, and eluted with 40 μL of 1 μg/mL FLAG peptide in the same buffer. Samples were analyzed on Western blots detected with antibodies against luciferase (Sigma, L2164) and the FLAG-M2 tag (Sigma, F1804).
(In western blotting, separated proteins are transferred to a membrane and probed.)

T1 sequence (P11142 whole entry): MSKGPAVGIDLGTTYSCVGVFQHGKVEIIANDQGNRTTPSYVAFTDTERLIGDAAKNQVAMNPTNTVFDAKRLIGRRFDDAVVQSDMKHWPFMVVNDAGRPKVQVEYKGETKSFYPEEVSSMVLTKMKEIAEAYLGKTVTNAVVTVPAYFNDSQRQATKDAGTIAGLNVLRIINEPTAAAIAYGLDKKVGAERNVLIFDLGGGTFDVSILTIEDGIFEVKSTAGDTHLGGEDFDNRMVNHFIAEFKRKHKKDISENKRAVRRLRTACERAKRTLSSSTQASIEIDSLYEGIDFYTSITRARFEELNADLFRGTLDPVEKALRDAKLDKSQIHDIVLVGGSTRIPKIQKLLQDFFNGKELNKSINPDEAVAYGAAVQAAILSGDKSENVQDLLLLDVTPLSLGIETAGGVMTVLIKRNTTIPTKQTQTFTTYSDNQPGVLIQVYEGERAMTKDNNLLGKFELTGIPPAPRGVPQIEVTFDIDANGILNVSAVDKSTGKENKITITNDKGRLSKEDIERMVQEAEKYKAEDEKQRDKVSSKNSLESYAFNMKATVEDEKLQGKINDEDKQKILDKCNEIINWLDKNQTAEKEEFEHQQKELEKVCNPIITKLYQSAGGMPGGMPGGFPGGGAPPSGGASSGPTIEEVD

As for NWFLYLSTL [Peptide 1092-S], the “competition of HSC70 binding to immobilized 1097-L (in words)” value at HSC70 [1] (1 μM HSC70, soluble peptide up to 100 μM) was “competed all three chaperones”. Further, the equilibrium dissociation constant (Kd) amounted to 1.26 µM on HSC70 [1] (read-out: Kd from competition curves, HSC70); 5.47 µM at DJA1 [2] (read-out: Kd from competition curves, DJA1); 2.63 µM at DJA2 [3]; 6.17 µM on HSC70 [4] (read-out: Kd from fluorescence binding, HSC70); 3.97 µM on DJA1 [5] (read-out: Kd from fluorescence binding, DJA1); 8.46 µM at DJA2 [6] (read-out: Kd from fluorescence binding, DJA2). In addition, at DJA1 [2] (1 μM DJA1, 100 μM soluble peptide, Fig. 3c/5, cutoff twice SD of 733-L, n ≥ 4), the “DJA1 binding site by competition screen (in words)” value is reported as “one of the few sites also bound by DJA1”. Moreover, at DJA1 [2] (1 μM DJA1, soluble peptide up to 100 μM), the “competition of DJA1 binding to immobilized 1097-L (in words)” value is on record as “competed all three chaperones”. The “competition of DJA2 binding to immobilized 1097-L (in words)” value on DJA2 [3] (1 μM DJA2, soluble peptide up to 100 μM) is on record as “competed all three chaperones”. Also, at HSC70 [4], the “Kd from fluorescence binding, HSC70” value is given as “single micromolar range”. Also, the “Kd from fluorescence binding, DJA1” value at DJA1 [5] is “single micromolar range”. Besides, at DJA2 [6], the “Kd from fluorescence binding, DJA2” value is “single micromolar range”. In addition, the “competition of HSC70 binding to immobilized NBD1 (in words)” value at HSC70 [7] was “effective competitors”. For the same substance, the “effect on luciferase refolding (in words)” value in the test with HSC70 and DJA2 was “inhibited refolding”.
For the substance “733-L: R 15-mer 726-740, negative control (EDSDEPLERRLSLVP; UniProt P13569 726-740, looked up, fragment) [Peptide 733-L]”, in the test with HSC70 [8] (2 μM HSC70, with ATP, immobilized 15-mer, n ≥ 3), the “binding in peptide library screen, HSC70 (in words)” value is listed as “low binding”. In the test with HSC70 [8] (HSC70 titrated to 1.5 μM on immobilized peptide, Fig. 2a, S2a, n ≥ 6), the “titration binding / saturation, HSC70 (in words)” value is “low”. Moreover, the “binding in peptide library screen, DJA1 (in words)” value with DJA1 [9] is “low binding”. The “binding in peptide library screen, DJA2 (in words)” value with DJA2 [10] was “low binding”. For the same substance, in the test with HSC70 [7], the “competition of HSC70 binding to immobilized NBD1 (in words)” value is given as “did not”. For the same substance, the “effect on luciferase refolding (in words)” value in the test with HSC70 and DJA2 is “no effect”. Further, the “luciferase bound to HSC70 in presence of peptide (in words)” value in the test with Flag-tagged HSC70 is recorded as “luciferase was substantially bound”.

Usually Kd stands for the free concentration of one partner at which half of the binding sites on the other are occupied at equilibrium, for simple one-to-one binding.

Values taken from paper PMC7060200, “Selective Binding of HSC70 and its Co-Chaperones to Structural Hotspots on CFTR” (Scientific Reports, 2020).
